We go through 20 molecules from PubChem BioAssay AID248 (DTP/NCI, 2004).

SMILES strings stand for the structures. “And” between values parts separate entries of the source, which are not always exact repeats. Equal entries are not always repeated. Toxic doses and inconclusive results are not listed.

This assay relates to L1210 leukemia ip in BDF1 mice, survival T/C. Description: NCI In Vivo Anticancer Drug Screen. Data for tumor model L1210 Leukemia (intraperitoneal) in B6D2F1 (BDF1) mice. The following applies: endpoint: mean survival time, higher = longer survival. The method in brief: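 Tumor cells were implanted, animals were treated, and survival was followed. The result divides the treated measurement by the vehicle-control measurement.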

Where [1] appears, read: dose: 100.0 mg/kg/injection, schedule: Q01DX001 (ip), vehicle: carboxymethylcellulose (CMC).
[2] abbreviates: dose: 100.0 mg/kg/injection, schedule: Q04DX003 (ip), vehicle: Klucel (hydroxypropylcellulose) (HPC).
[3] abbreviates: dose: 200.0 mg/kg/injection, schedule: Q04DX003 (ip), vehicle: Klucel (hydroxypropylcellulose) (HPC).
The mark [4] stands for this setting: dose: 400.0 mg/kg/injection, schedule: Q04DX003 (ip), vehicle: Klucel (hydroxypropylcellulose) (HPC).
Setting [5] is: dose: 50.0 mg/kg/injection, schedule: Q01DX001 (ip), vehicle: carboxymethylcellulose (CMC).
Setting [6] is: dose: 200.0 mg/kg/injection, schedule: Q01DX001 (ip), vehicle: carboxymethylcellulose (CMC).
The mark [7] stands for this setting: dose: 400.0 mg/kg/injection, schedule: Q01DX001 (ip), vehicle: carboxymethylcellulose (CMC).
The mark [8] stands for this setting: dose: 100.0 mg/kg/injection, schedule: Q04DX003 (ip), vehicle: saline sonified.
[9] abbreviates: dose: 200.0 mg/kg/injection, schedule: Q04DX003 (ip), vehicle: saline sonified.

With `O=NN(CCCl)C(=O)Nc1ccc(Br)cc1`, the T/C is 122 % of control (dose: 12.0 mg/kg/injection, schedule: Q01DX009 (ip), vehicle: carboxymethylcellulose (CMC)); 124 % of control (dose: 12.0 mg/kg/injection, schedule: Q01DX015 (ip), vehicle: carboxymethylcellulose (CMC)); 154 % of control (dose: 29.0 mg/kg/injection, schedule: Q01DX015 (ip), vehicle: carboxymethylcellulose (CMC)); 114 % of control and 89 % of control (dose: 44.0 mg/kg/injection, schedule: Q01DX015 (ip), vehicle: carboxymethylcellulose (CMC)); 157 % of control under setting [1].
Turning to `CC(C(O)c1cc(=O)n(C)c2ccccc12)[N+](=O)[O-]` (centres undefined), the T/C was 95 % of control (dose: 100.0 mg/kg/injection, schedule: Q01DX001 (ip), vehicle: other); 110 % of control (dose: 200.0 mg/kg/injection, schedule: Q01DX001 (ip), vehicle: other); 101 % of control (dose: 400.0 mg/kg/injection, schedule: Q01DX001 (ip), vehicle: other).
On to `Cc1ccc2c(c1)C(c1ccccc1)(c1ccccc1)OC2=O`, for which the T/C was 98 % of control (dose: 100.0 mg/kg/injection, schedule: Q01DX009 (ip), vehicle: saline with Tween-80); 98 % of control (dose: 200.0 mg/kg/injection, schedule: Q01DX009 (ip), vehicle: saline with Tween-80); 103 % of control (dose: 400.0 mg/kg/injection, schedule: Q01DX009 (ip), vehicle: saline with Tween-80).
As for `CCOC(=O)C(Cc1c[nH]c2ccccc12)C(=O)OCC`, the T/C under setting [2] is 96 % of control, the T/C under setting [3] was 94 % of control and the T/C under setting [4] was 98 % of control.
Regarding `O=c1oc2ccc(Cl)cc2c2c1OC(c1ccccc1)CN2` (centres undefined), the T/C is, setting by setting: (dose: 100.0 mg/kg/injection, schedule: Q01DX001 (ip), vehicle: Klucel (hydroxypropylcellulose) (HPC)) 96 % of control; (dose: 200.0 mg/kg/injection, schedule: Q01DX001 (ip), vehicle: Klucel (hydroxypropylcellulose) (HPC)) 90 % of control; (dose: 400.0 mg/kg/injection, schedule: Q01DX001 (ip), vehicle: Klucel (hydroxypropylcellulose) (HPC)) 91 % of control.
In the case of `O=C(O)/C(=C\c1cc2c(cc1[N+](=O)[O-])OCO2)c1cc2c(cc1Br)OCO2`, the T/C is, setting by setting: under setting [5], 97 % of control; under setting [1], 100 % of control; under setting [6], 103 % of control; under setting [7], 92 % of control.
For `Nc1nc(=S)c2ncn(C3OC(CO)CC3O)c2[nH]1` (centres undefined), the T/C by setting is: (dose: 10.0 mg/kg/injection, schedule: Q01DX009 (ip), vehicle: other) 160 % of control; (dose: 88.8 mg/kg/injection, schedule: Q01DX001 (ip), vehicle: carboxymethylcellulose (CMC)) 162 % of control; under setting [6], 189 % of control.
Take `Clc1cccc2c(Cl)nccc12`: the T/C reads like this: (dose: 100.0 mg/kg/injection, schedule: Q04DX003 (ip), vehicle: saline with Tween-80) 100 % of control; (dose: 200.0 mg/kg/injection, schedule: Q04DX003 (ip), vehicle: saline with Tween-80) 94 % of control; (dose: 400.0 mg/kg/injection, schedule: Q04DX003 (ip), vehicle: saline with Tween-80) 96 % of control.
For the molecule `O=C1CCC2C1CC1CC3C(=O)CCC3C12` (centres undefined), the T/C is, setting by setting: (dose: 50.0 mg/kg/injection, schedule: Q04DX002 (ip), vehicle: saline with Tween-80) 113 % of control; (dose: 100.0 mg/kg/injection, schedule: Q04DX002 (ip), vehicle: saline with Tween-80) 98 % of control.
In the case of `Cc1cc(C)nc(NCC(=O)O)n1`, the T/C was 95 % of control (dose: 50.0 mg/kg/injection, schedule: Q04DX002 (ip), vehicle: saline); 95 % of control (dose: 100.0 mg/kg/injection, schedule: Q04DX002 (ip), vehicle: saline); 95 % of control (dose: 200.0 mg/kg/injection, schedule: Q04DX002 (ip), vehicle: saline).
`Cc1cc([N+](=O)[O-])ccc1I`: the T/C reads like this: under setting [5], 101 % of control; under setting [1], 95 % of control; under setting [6], 95 % of control; under setting [7], 90 % of control.
Consider `C[N+](C)(C)C(=O)c1ccccc1`, for which the T/C is, setting by setting: (dose: 50.0 mg/kg/injection, schedule: Q01DX001 (ip), vehicle: saline) 104 % of control; (dose: 100.0 mg/kg/injection, schedule: Q01DX001 (ip), vehicle: saline) 101 % of control.
As for `CC1B(O)Nc2nc(=S)[nH]c(N)c21` (centres undefined), the T/C runs as follows: under setting [8], 104 % of control; under setting [9], 103 % of control.
As for `Cc1nccc2cc3c(cc12)c1ccccc1n3C`, the T/C by setting is: (dose: 37.5 mg/kg/injection, schedule: Q04DX003 (ip), vehicle: Klucel (hydroxypropylcellulose) (HPC)) 105 % of control; (dose: 75.0 mg/kg/injection, schedule: Q04DX003 (ip), vehicle: Klucel (hydroxypropylcellulose) (HPC)) 111 % of control; (dose: 150.0 mg/kg/injection, schedule: Q04DX003 (ip), vehicle: Klucel (hydroxypropylcellulose) (HPC)) 105 % of control; (dose: 300.0 mg/kg/injection, schedule: Q04DX003 (ip), vehicle: Klucel (hydroxypropylcellulose) (HPC)) 95 % of control.
With `CCCCCCC(=O)/C=C/c1ccccc1Cl`, the T/C (dose: 100.0 mg/kg/injection, schedule: Q01DX009 (ip), vehicle: other) is 98 % of control; the T/C (dose: 200.0 mg/kg/injection, schedule: Q01DX009 (ip), vehicle: other) is 92 % of control; the T/C (dose: 400.0 mg/kg/injection, schedule: Q01DX009 (ip), vehicle: other) was 93 % of control.
With `CC1(O)c2ccccc2-c2nc3ccccc3nc21` (centres undefined), the T/C was 89 % of control (dose: 50.0 mg/kg/injection, schedule: Q01DX009 (ip), vehicle: saline sonified); 102 % of control (dose: 100.0 mg/kg/injection, schedule: Q01DX009 (ip), vehicle: saline sonified); 94 % of control under setting [8]; 102 % of control (dose: 200.0 mg/kg/injection, schedule: Q01DX009 (ip), vehicle: saline sonified); 110 % of control under setting [9]; 87 % of control (dose: 400.0 mg/kg/injection, schedule: Q04DX003 (ip), vehicle: saline sonified).
As to `NC(CSC(c1ccccc1)(c1ccccc1)c1ccccc1)C(=O)OC(c1ccccc1)c1ccccc1` (centres undefined), the T/C (dose: 264.0 mg/kg/injection, schedule: Q01DX001 (ip), vehicle: carboxymethylcellulose (CMC)) was 113 % of control.
Regarding `O=c1c(-c2ccccc2)c(-c2ccccc2)n2n1C1C=CC2C1` (centres undefined), the T/C is 96 % of control under setting [1], 96 % of control under setting [6] and 96 % of control under setting [7].
In the case of `c1ccc(-c2nc3cnccc3o2)cc1`, the T/C is, setting by setting: (dose: 12.5 mg/kg/injection, schedule: Q01DX009 (ip), vehicle: Klucel (hydroxypropylcellulose) (HPC)) 92 % of control; (dose: 25.0 mg/kg/injection, schedule: Q01DX009 (ip), vehicle: Klucel (hydroxypropylcellulose) (HPC)) 94 % of control; (dose: 50.0 mg/kg/injection, schedule: Q01DX009 (ip), vehicle: Klucel (hydroxypropylcellulose) (HPC)) 94 % of control; under setting [2], 106 % of control; under setting [3], 99 % of control; under setting [4], 94 % of control.
For the molecule `CNC(=O)C1OC(n2cnc3c(N)ncnc32)C(O)C1O` (centres undefined), the T/C (dose: 0.19 mg/kg/injection, schedule: Q01DX005 (ip), vehicle: saline) is 110 % of control; the T/C (dose: 0.19 mg/kg/injection, schedule: Q01DX009 (ip), vehicle: saline) is 114 % of control; the T/C (dose: 0.39 mg/kg/injection, schedule: Q01DX005 (ip), vehicle: saline) is 105 % of control; the T/C (dose: 0.39 mg/kg/injection, schedule: Q01DX009 (ip), vehicle: saline) was 93 % of control; the T/C (dose: 0.78 mg/kg/injection, schedule: Q01DX005 (ip), vehicle: saline) was 116 % of control; the T/C (dose: 0.78 mg/kg/injection, schedule: Q01DX009 (ip), vehicle: saline) is 103 % of control.
